From patent US9790216B2, “3-substituted cyclopentylamine derivatives” (Merck Patent GmbH, priority 2013, dated 2017)

Target: T1, human fatty acid synthase FASN (Homo sapiens, UniProt P49327)
T1 construct: human recombinant full-length fatty acid synthase; made in house; host or cells: SF9 cells
Test: Biochemical activity testing of human fatty acid synthase FASN (NADPH fluorescence intensity enzyme assay)
Conditions: for IC50: human recombinant full-length FASN, inhibition
Source text: • GST=Glutathione-S-transferase • FRET=Fluorescence resonance energy transfer • HTRF®=(homogenous time resolved fluorescence) • HEPES=4-(2-hydroxyethyl)-1-piperazine ethanesulfonic acid buffer • DTT=Dithiothreitol • BSA=bovine serum albumin • CHAPS=detergent; • CHAPS=3-[(3-cholamidopropyl)dimethylammonio]-1-propanesulfonate Biochemical Activity Testing of Human Fatty Acid Synthase FASN
Fatty acid synthase FASN is a multifunctional enzyme with seven catalytic activities thereby synthesising long chain fatty acids especially palmitoyl-CoA in the presence of co-factor NADPH starting from the substrates acetyl-CoA and malonyl-CoA. The reductive synthesis is realized by the oxidation of NADPH to NADP. Since NADPH has a high fluorescence intensity quantum yield compared to NADP with excitation at 340 nm and emission at 460 nm, the reaction can be monitored via the decrease in fluorescence intensity. The biochemical FASN activity testing was performed as 384 well two-time-point kinetic fluorescence intensity assay format in Greiner low volume medium binding 384-well black microtiter plates in a total assay volume of 8 μl and was used for high throughput screen. In each well 3 μl 40 nM human recombinant full-length fatty acid synthase (produced in-house in SF9 cells) were dispensed in the following assay buffer: 50 mM potassium phosphate buffer pH 7.0, 0.005% (w/v) BSA, 2 mM Glutathione, 0.02% Tween-20. Then 2 μl of 200 μM NADPH in assay buffer were added, followed by the addition of the test compounds in 10 dilution concentrations starting with 30 μM (final concentration) to get a final DMSO content of 1% (v/v). The mixture was incubated for at least 15 min at room temperature. After the pre-incubation the enzymatic reaction was started by the addition of 2 μl substrate solution (80 μM acetyl-CoA, 240 μM malonyl-CoA). A first fluorescence intensity measurement (time point one) was performed with an Envision multimode reader (Perkin Elmer LAS Germany GmbH) at excitation wavelength 340 nm (lamp mode) and emission wavelength 460 nm. The reaction was incubated for 30 minutes at room temperature. After this the fluorescence intensity was measured again in the Envision using the same parameters as described above (second time point measurement). The data were analysed by subtracting the first time point measurement value from the second time point measurement value (after the enzymatic reaction). The differences of the emission signals were determined. These reflect directly the conversion rate of NADPH. The full value used was the inhibitor-free reaction. A pharmacological zero value was used like GSK837149A (Sigma-Aldrich) in a final concentration of 5-10 μM. The inhibitory values (IC50) were determined using either the program Symyx Assay Explorer® or Condosseo® from GeneData.

T1 sequence (P49327 whole entry): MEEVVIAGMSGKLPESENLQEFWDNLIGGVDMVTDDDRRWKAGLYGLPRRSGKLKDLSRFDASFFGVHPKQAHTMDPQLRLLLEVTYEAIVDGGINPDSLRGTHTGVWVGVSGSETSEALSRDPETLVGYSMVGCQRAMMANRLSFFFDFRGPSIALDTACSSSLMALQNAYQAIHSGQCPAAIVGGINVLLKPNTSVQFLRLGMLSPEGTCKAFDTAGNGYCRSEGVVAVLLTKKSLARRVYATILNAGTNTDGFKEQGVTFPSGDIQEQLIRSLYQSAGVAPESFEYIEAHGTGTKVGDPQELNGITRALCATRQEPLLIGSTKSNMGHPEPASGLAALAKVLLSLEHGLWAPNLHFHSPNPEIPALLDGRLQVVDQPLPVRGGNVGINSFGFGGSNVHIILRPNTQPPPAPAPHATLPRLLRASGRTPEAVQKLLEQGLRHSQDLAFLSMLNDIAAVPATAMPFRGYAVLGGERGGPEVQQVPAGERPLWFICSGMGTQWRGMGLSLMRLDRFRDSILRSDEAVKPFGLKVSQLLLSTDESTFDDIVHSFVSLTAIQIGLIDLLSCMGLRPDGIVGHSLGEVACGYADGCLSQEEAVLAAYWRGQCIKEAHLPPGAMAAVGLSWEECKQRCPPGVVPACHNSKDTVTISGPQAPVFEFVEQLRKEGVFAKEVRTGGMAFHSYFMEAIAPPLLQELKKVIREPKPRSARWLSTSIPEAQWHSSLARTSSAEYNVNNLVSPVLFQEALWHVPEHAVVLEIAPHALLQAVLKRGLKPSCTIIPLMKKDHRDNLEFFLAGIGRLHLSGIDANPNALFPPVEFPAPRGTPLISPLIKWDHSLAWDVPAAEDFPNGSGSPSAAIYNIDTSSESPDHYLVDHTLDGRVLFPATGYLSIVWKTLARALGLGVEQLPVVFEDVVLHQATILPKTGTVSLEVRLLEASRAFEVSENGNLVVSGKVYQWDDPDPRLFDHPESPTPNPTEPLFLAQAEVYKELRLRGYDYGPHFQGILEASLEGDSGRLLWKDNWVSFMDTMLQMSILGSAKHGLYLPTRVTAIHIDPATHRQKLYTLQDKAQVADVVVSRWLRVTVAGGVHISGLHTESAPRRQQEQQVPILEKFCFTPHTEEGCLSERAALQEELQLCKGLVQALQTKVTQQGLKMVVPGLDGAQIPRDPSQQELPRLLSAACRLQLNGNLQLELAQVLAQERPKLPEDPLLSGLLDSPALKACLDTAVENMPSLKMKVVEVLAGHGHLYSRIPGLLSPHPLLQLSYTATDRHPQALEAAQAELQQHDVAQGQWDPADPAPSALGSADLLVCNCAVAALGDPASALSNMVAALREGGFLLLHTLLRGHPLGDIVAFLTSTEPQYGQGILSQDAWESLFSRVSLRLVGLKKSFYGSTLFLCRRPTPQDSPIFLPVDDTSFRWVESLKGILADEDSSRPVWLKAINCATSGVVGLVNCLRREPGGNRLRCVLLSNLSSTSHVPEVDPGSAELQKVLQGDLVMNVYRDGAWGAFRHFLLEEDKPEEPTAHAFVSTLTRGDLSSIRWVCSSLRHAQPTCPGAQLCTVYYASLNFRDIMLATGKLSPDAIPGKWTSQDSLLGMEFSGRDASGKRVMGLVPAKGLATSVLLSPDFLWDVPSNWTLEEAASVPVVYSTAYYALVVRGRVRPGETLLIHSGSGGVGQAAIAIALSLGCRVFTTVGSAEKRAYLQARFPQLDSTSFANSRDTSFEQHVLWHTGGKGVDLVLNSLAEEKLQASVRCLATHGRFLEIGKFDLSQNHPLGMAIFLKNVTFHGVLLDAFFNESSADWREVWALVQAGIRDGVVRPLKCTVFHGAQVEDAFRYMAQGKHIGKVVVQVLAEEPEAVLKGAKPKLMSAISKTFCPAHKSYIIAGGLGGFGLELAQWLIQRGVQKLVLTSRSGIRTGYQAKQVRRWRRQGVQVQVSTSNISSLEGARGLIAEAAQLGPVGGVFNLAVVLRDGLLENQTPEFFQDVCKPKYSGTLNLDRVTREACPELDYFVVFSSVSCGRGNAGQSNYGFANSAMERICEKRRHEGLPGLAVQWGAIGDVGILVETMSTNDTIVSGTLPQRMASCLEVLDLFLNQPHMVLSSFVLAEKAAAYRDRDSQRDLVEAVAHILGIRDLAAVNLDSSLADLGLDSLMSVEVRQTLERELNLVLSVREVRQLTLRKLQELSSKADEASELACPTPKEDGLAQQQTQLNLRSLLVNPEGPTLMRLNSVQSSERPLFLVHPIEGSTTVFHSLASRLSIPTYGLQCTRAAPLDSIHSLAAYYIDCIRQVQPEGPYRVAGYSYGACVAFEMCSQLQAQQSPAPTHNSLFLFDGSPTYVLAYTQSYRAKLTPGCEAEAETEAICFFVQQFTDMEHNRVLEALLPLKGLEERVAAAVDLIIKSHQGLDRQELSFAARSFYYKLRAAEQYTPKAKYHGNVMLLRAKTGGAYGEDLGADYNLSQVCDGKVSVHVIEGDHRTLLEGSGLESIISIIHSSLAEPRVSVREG

Row | IC50 | SMILES | IC50 FASN (enzyme assay): % at single concentration (@30 μM)
1 | < 300 nM | CCc1nnc([C@H]2CC[C@@H](N(C)C(=O)c3ccc(-c4nc5ccccc5[nH]4)cc3)C2)o1 [Compound A7, 4-(1H-benzimidazol-2-yl)-N-[(1 R,3S)-3-(5-ethyl-[1,3,4]oxadiazol-2-yl)-cyclopentyl]-N-methyl-benzamide] | 
2 | < 300 nM | Cc1nnc([C@H]2CC[C@@H](N(C)C(=O)c3ccc(-c4nc5cc(Cl)ccc5o4)cc3)C2)o1 [Compound A19, 4-(5-chloro-benzoxazol-2-yl)-N-methyl-N-[(1 R,3S)-3-(5-methyl-[1,3,4]oxadiazol-2-yl)-cyclopentyl]-benzamide] | 
3 | < 300 nM | Cc1nnc([C@H]2CC[C@@H](N(C)C(=O)c3ccc(-c4ccc(C#N)cc4)cc3)C2)o1 [Compound A25, 4′-cyano-biphenyl-4-carboxylic acid methyl-[(1R,3S)-3-(5-methyl-[1,3,4]oxadiazol-2-yl)-cyclopentyl]-amide] | 
4 |  | Cc1noc([C@H]2CC[C@@H](N(C)C(=O)c3ccc(-c4nc5ccccc5o4)cc3)C2)n1 [Compound A28, 4-benzoxazol-2-yl-N-methyl-N-[(1 R,3S)-3-(3-methyl-[1,2,4]oxadiazol-5-yl)-cyclopentyl]-benzamide] | −38% @30 μM
